Test results as given in PubChem BioAssay AID1963831 (Molecular Pharmacology Branch, DTP, NCI, 2024).

Test system: 889142-216-R-J1-PDC complex spheroid viability
Test: Anticancer human tumor 889142-216-R-J1-PDC patient-derived bladder carcinoma cell line growth inhibition [POLQ]
Details: for IC50: curve of first compound; for viability, T/C: stronger effect = lower value
Outline: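 Three-cell-type spheroids modelling solid tumor plus stroma served as the readout system; POL inhibitors were tested individually and in combination, concentration ranges set by clinical Cmax where known.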

[1] = second compound 0.0316 µM, first compound 0.0316 µM
[2] = second compound 0.0316 µM, first compound 0.1 µM
[3] = second compound 0.0316 µM, first compound 0.316 µM
[4] = second compound 0.0316 µM, first compound 1 µM
[5] = second compound 0.0316 µM, first compound 3.16 µM
[6] = second compound 0.0316 µM, first compound 10 µM
[7] = second compound 0.1 µM, first compound 0.0316 µM
[8] = second compound 0.1 µM, first compound 0.1 µM
[9] = second compound 0.1 µM, first compound 0.316 µM
[10] = second compound 0.1 µM, first compound 1 µM
[11] = second compound 0.1 µM, first compound 3.16 µM
[12] = second compound 0.1 µM, first compound 10 µM
[13] = second compound 0.316 µM, first compound 0.0316 µM
[14] = second compound 0.316 µM, first compound 0.1 µM
[15] = second compound 0.316 µM, first compound 0.316 µM
[16] = second compound 0.316 µM, first compound 1 µM
[17] = second compound 0.316 µM, first compound 3.16 µM
[18] = second compound 0.316 µM, first compound 10 µM
[19] = second compound 1 µM, first compound 0.0316 µM
[20] = second compound 1 µM, first compound 0.1 µM
[21] = second compound 1 µM, first compound 0.316 µM
[22] = second compound 1 µM, first compound 1 µM
[23] = second compound 1 µM, first compound 3.16 µM
[24] = second compound 1 µM, first compound 10 µM
[25] = second compound 3.16 µM, first compound 0.0316 µM
[26] = second compound 3.16 µM, first compound 0.1 µM
[27] = second compound 3.16 µM, first compound 0.316 µM
[28] = second compound 3.16 µM, first compound 1 µM
[29] = second compound 3.16 µM, first compound 3.16 µM
[30] = second compound 3.16 µM, first compound 10 µM
[31] = second compound 10 µM, first compound 0.0316 µM
[32] = second compound 10 µM, first compound 0.1 µM
[33] = second compound 10 µM, first compound 0.316 µM
[34] = second compound 10 µM, first compound 1 µM
[35] = second compound 10 µM, first compound 3.16 µM
[36] = second compound 10 µM, first compound 10 µM
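Further: spheroids exposed to compounds for seven days.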
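Wherever viability, T/C is given: 100% = DMSO vehicle control viability.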

COc1cc(C2c3cc4c(cc3C(OC3OC5COC(C)OC5C(O)C3O)C3COC(=O)C23)OCO4)cc(OC)c1O (stereo unspecified) + Cc1cccc(N(C)C(=O)C2C(O)CCN2c2nc(C)cc(C(F)(F)F)c2C#N)c1
IC50 (second compound 0.0316 µM): > 10 µM
IC50 (second compound 0.1 µM): > 10 µM
IC50 (second compound 0.316 µM): > 10 µM
IC50 (second compound 1 µM): > 10 µM
IC50 (second compound 3.16 µM): > 10 µM
IC50 (second compound 10 µM): 4.63 µM
viability, T/C [1]: 83.9%
viability, T/C [2]: 74.5%
viability, T/C [3]: 65.3%
viability, T/C [4]: 53.5%
viability, T/C [5]: 65.1%
viability, T/C [6]: 66%
viability, T/C [7]: 82.6%
viability, T/C [8]: 85.2%
viability, T/C [9]: 70.9%
viability, T/C [10]: 56.4%
viability, T/C [11]: 68.5%
viability, T/C [12]: 57.6%
viability, T/C [13]: 93.1%
viability, T/C [14]: 86.9%
viability, T/C [15]: 59.4%
viability, T/C [16]: 64%
viability, T/C [17]: 70.1%
viability, T/C [18]: 52.6%
viability, T/C [19]: 86.2%
viability, T/C [20]: 83.6%
viability, T/C [21]: 62%
viability, T/C [22]: 45.9%
viability, T/C [23]: 70.6%
viability, T/C [24]: 58.8%
viability, T/C [25]: 83%
viability, T/C [26]: 81.2%
viability, T/C [27]: 64.2%
viability, T/C [28]: 62.1%
viability, T/C [29]: 62.4%
viability, T/C [30]: 52.4%
viability, T/C [31]: 77.4%
viability, T/C [32]: 74.1%
viability, T/C [33]: 61%
viability, T/C [34]: 61%
viability, T/C [35]: 59.8%
viability, T/C [36]: 40.4%

CCc1cc2c(N3CCc4c(cc(Cn5ccnc5)cc4-c4cn(C)nc4C(F)(F)F)C3=O)ccnc2c(OC)n1 + COC1C(OC(N)=O)C(O)C(Oc2ccc3c(O)c(NC(=O)c4ccc(O)c(CC=C(C)C)c4)c(=O)oc3c2C)OC1(C)C
IC50 (second compound 0.0316 µM): > 10 µM
IC50 (second compound 0.1 µM): > 10 µM
IC50 (second compound 0.316 µM): > 10 µM
IC50 (second compound 1 µM): > 10 µM
IC50 (second compound 3.16 µM): > 10 µM
IC50 (second compound 10 µM): > 10 µM
viability, T/C [1]: 120%
viability, T/C [2]: 109%
viability, T/C [3]: 119%
viability, T/C [4]: 95.5%
viability, T/C [5]: 69.1%
viability, T/C [6]: 83%
viability, T/C [7]: 101%
viability, T/C [8]: 117%
viability, T/C [9]: 98.3%
viability, T/C [10]: 111%
viability, T/C [11]: 105%
viability, T/C [12]: 62%
viability, T/C [13]: 105%
viability, T/C [14]: 106%
viability, T/C [15]: 102%
viability, T/C [16]: 115%
viability, T/C [17]: 96.1%
viability, T/C [18]: 64.3%
viability, T/C [19]: 112%
viability, T/C [20]: 130%
viability, T/C [21]: 107%
viability, T/C [22]: 102%
viability, T/C [23]: 83.9%
viability, T/C [24]: 77.7%
viability, T/C [25]: 95.6%
viability, T/C [26]: 106%
viability, T/C [27]: 117%
viability, T/C [28]: 94.2%
viability, T/C [29]: 95%
viability, T/C [30]: 77.9%
viability, T/C [31]: 122%
viability, T/C [32]: 103%
viability, T/C [33]: 112%
viability, T/C [34]: 109%
viability, T/C [35]: 91.6%
viability, T/C [36]: 67.3%

COc1cccc(OCCCN)c1-c1cc(Nc2cnc(C#N)cn2)n[nH]1 + Nc1ccc(C#CCN(C(=O)Cc2ncc(C(F)(F)F)cc2C(F)(F)F)c2ccc(F)cc2)nn1
IC50 (second compound 0.0316 µM): 0.136 µM
IC50 (second compound 0.1 µM): 0.161 µM
IC50 (second compound 0.316 µM): 0.0933 µM
IC50 (second compound 1 µM): 0.0329 µM
IC50 (second compound 3.16 µM): 0.0293 µM
IC50 (second compound 10 µM): > 1 µM
viability, T/C (second compound 0.0316 µM, first compound 0.00316 µM): 100%
viability, T/C (second compound 0.0316 µM, first compound 0.01 µM): 77.4%
viability, T/C [1]: 60.2%
viability, T/C [2]: 45.8%
viability, T/C [3]: 51%
viability, T/C [4]: 49%
viability, T/C (second compound 0.1 µM, first compound 0.00316 µM): 98.5%
viability, T/C (second compound 0.1 µM, first compound 0.01 µM): 75.1%
viability, T/C [7]: 57.9%
viability, T/C [8]: 54.6%
viability, T/C [9]: 45.8%
viability, T/C [10]: 46.2%
viability, T/C (second compound 0.316 µM, first compound 0.00316 µM): 99.6%
viability, T/C (second compound 0.316 µM, first compound 0.01 µM): 71.8%
viability, T/C [13]: 49.9%
viability, T/C [14]: 49.9%
viability, T/C [15]: 56.8%
viability, T/C [16]: 43.6%
viability, T/C (second compound 1 µM, first compound 0.00316 µM): 79.1%
viability, T/C (second compound 1 µM, first compound 0.01 µM): 68%
viability, T/C [19]: 50%
viability, T/C [20]: 44.5%
viability, T/C [21]: 49%
viability, T/C [22]: 39.5%
viability, T/C (second compound 3.16 µM, first compound 0.00316 µM): 76.8%
viability, T/C (second compound 3.16 µM, first compound 0.01 µM): 76.7%
viability, T/C [25]: 47.7%
viability, T/C [26]: 48.9%
viability, T/C [27]: 54%
viability, T/C [28]: 41.9%
viability, T/C (second compound 10 µM, first compound 0.00316 µM): 85.8%
viability, T/C (second compound 10 µM, first compound 0.01 µM): 70.6%
viability, T/C [31]: 55.8%
viability, T/C [32]: 51.8%
viability, T/C [33]: 61%
viability, T/C [34]: 45.6%
